In brackets after ≈: the same amount, converted by molar mass. Counter-ions that a name gives are not always drawn.
Legend:
Type in all cases: cell-based
[1] = system: E. coli 963; assay: agar dilution MIC, E. coli 963; conditions: Escherichia coli, Mueller-Hinton agar, 10^5 CFU per point, about 18 hrs, 37° C., read-out: Minimum Inhibitory Concentrations
Procedure: (§1) The antibacterial activity of the compounds according to the present invention was evaluated against pathogenic strains of recent clinical isolation, both gram positive and gram negative. Minimum inhibitory concentration (MIC) were determined by the diluition method in agar, using a multipoint inoculator (Denley Techn. Ltd. England). As a culture medium Mueller-Hinton agar (DIFCO) in Petri capsules was used.
(§2) The bacterial inoculum, originating from an overnight broth was inoculated by a multipoint and was standardized in such a way as to obtain 10^5 colony forming units (CFU) per point.
(§3) After about 18 hrs incubation in a thermostat at 37° C., the bacterial growth was evaluated on each plate.

[2] = system: Pseudomonas 2437; assay: agar dilution MIC, Pseudomonas 2437; conditions: Mueller-Hinton agar, 10^5 CFU per point, about 18 hrs, 37° C., read-out: Minimum Inhibitory Concentrations
Procedure: as §1, §2, §3

[3] = system: Staphylococcus 29; assay: agar dilution MIC, Staphylococcus 29; conditions: Mueller-Hinton agar, 10^5 CFU per point, about 18 hrs, 37° C., read-out: Minimum Inhibitory Concentrations
Procedure: as §1, §2, §3

[4] = system: Pseudomonas 19; assay: agar dilution MIC, Pseudomonas 19; conditions: Mueller-Hinton agar, 10^5 CFU per point, about 18 hrs, 37° C., read-out: Minimum Inhibitory Concentrations
Procedure: as §1, §2, §3

[5] = system: Salmonella 10; assay: agar dilution MIC, Salmonella 10; conditions: Mueller-Hinton agar, 10^5 CFU per point, about 18 hrs, 37° C., read-out: Minimum Inhibitory Concentrations
Procedure: as §1, §2, §3

[6] = system: Klebsiella 4; assay: agar dilution MIC, Klebsiella 4; conditions: Mueller-Hinton agar, 10^5 CFU per point, about 18 hrs, 37° C., read-out: Minimum Inhibitory Concentrations
Procedure: as §1, §2, §3

[7] = system: Klebsiella 5; assay: agar dilution MIC, Klebsiella 5; conditions: Mueller-Hinton agar, 10^5 CFU per point, about 18 hrs, 37° C., read-out: Minimum Inhibitory Concentrations
Procedure: as §1, §2, §3

[8] = system: Salmonella 9; assay: agar dilution MIC, Salmonella 9; conditions: Mueller-Hinton agar, 10^5 CFU per point, about 18 hrs, 37° C., read-out: Minimum Inhibitory Concentrations
Procedure: as §1, §2, §3

[9] = system: Proteus 966; assay: agar dilution MIC, Proteus 966; conditions: Mueller-Hinton agar, 10^5 CFU per point, about 18 hrs, 37° C., read-out: Minimum Inhibitory Concentrations
Procedure: as §1, §2, §3

[10] = system: Citrobacter 120; assay: agar dilution MIC, Citrobacter 120; conditions: Mueller-Hinton agar, 10^5 CFU per point, about 18 hrs, 37° C., read-out: Minimum Inhibitory Concentrations
Procedure: as §1, §2, §3

[11] = system: Enterobacter 41; assay: agar dilution MIC, Enterobacter 41; conditions: Mueller-Hinton agar, 10^5 CFU per point, about 18 hrs, 37° C., read-out: Minimum Inhibitory Concentrations
Procedure: as §1, §2, §3

[12] = system: Proteus 25; assay: agar dilution MIC, Proteus 25; conditions: Mueller-Hinton agar, 10^5 CFU per point, about 18 hrs, 37° C., read-out: Minimum Inhibitory Concentrations
Procedure: as §1, §2, §3

[13] = system: Enterobacter 2653; assay: agar dilution MIC, Enterobacter 2653; conditions: Mueller-Hinton agar, 10^5 CFU per point, about 18 hrs, 37° C., read-out: Minimum Inhibitory Concentrations
Procedure: as §1, §2, §3

[14] = system: E. coli 15; assay: agar dilution MIC, E. coli 15; conditions: Escherichia coli, Mueller-Hinton agar, 10^5 CFU per point, about 18 hrs, 37° C., read-out: Minimum Inhibitory Concentrations
Procedure: as §1, §2, §3

[15] = system: Citrobacter 118; assay: agar dilution MIC, Citrobacter 118; conditions: Mueller-Hinton agar, 10^5 CFU per point, about 18 hrs, 37° C., read-out: Minimum Inhibitory Concentrations
Procedure: as §1, §2, §3

[16] = system: Staphylococcus 27; assay: agar dilution MIC, Staphylococcus 27; conditions: Mueller-Hinton agar, 10^5 CFU per point, about 18 hrs, 37° C., read-out: Minimum Inhibitory Concentrations
Procedure: as §1, §2, §3

[17] = system: Staphylococcus 7; assay: agar dilution MIC, Staphylococcus 7; conditions: Mueller-Hinton agar, 10^5 CFU per point, about 18 hrs, 37° C., read-out: Minimum Inhibitory Concentrations
Procedure: as §1, §2, §3

Row | SMILES | MIC [1] [µg/mL] | MIC [2] [µg/mL] | MIC [3] [µg/mL] | MIC [4] [µg/mL] | MIC [5] [µg/mL] | MIC [6] [µg/mL] | MIC [7] [µg/mL] | MIC [8] [µg/mL] | MIC [9] [µg/mL] | MIC [10] [µg/mL] | MIC [11] [µg/mL] | MIC [12] [µg/mL] | MIC [13] [µg/mL] | MIC [14] [µg/mL] | MIC [15] [µg/mL] | MIC [16] [µg/mL] | MIC [17] [µg/mL]
1 | CCNCC1CCN(c2c(F)cc3c(=O)c(C(=O)O)cn4c3c2OCC4C)C1 (stereo not drawn) [E.P. 0106489 ex. 20, reference compound] | 2 (≈ 5.14 µM) | 128 (≈ 329 µM) | 0.5 (≈ 1.28 µM) | 64 (≈ 164 µM) | 1 (≈ 2.57 µM) | 0.5 (≈ 1.28 µM) | 2 (≈ 5.14 µM) | 1 (≈ 2.57 µM) | 2 (≈ 5.14 µM) | 2 (≈ 5.14 µM) | 1 (≈ 2.57 µM) | 1 (≈ 2.57 µM) | 0.25 (≈ 0.642 µM) | 0.5 (≈ 1.28 µM) | 4 (≈ 10.3 µM) | 0.25 (≈ 0.642 µM) | 0.25 (≈ 0.642 µM)
2 | CCNCC1CCN(c2c(F)cc3c(=O)c(C(=O)O)cn4c3c2SCC4C)C1 (stereo not drawn) [ex. 1, 10-3-[(ethylamino)methyl]1-pyrrolidinyl]-9 fluoro-2,3-dihydro-3-methyl-7-oxo-7H-pyrido [1,2,3 de][1,4]benzothiazine-6-carboxylic acid hydrochloride] | 2 | 64 | 0.25 | 32 | 0.5 | 0.25 | 2 | 0.5 | 4 | 4 | 0.5 | 4 | 0.25 | 0.5 | 2 | 0.25 | 0.12
3 | CCNCC1CCN(c2c(F)cc3c(=O)c(C(=O)O)cn4c3c2SCC4)C1 (stereo not drawn) [ex. 2, 10-[3[(ethylamino)methyl]-1-pyrrolidinyl]-9-fluoro-2,3-dihydro-7-oxo-7H-pyr ido [1,2,3 de][1,4]benzothiazine-6-carboxylic acid hydrochloride] | 8 | > 128 | 2 | 128 | 2 | 2 | 8 | 4 | 8 | 8 | 4 | 8 | 1 | 2 | 8 | 8 | 1

Reference: patent publication US5066802A, “Process for preparing pyrido-benzothiazine derivatives having high antibacterial activity and high bioavailability to tissues” (Mediolanum Farmaceutici Srl., priority 1987, dated 1991)
